From patent publication US10981911B2, “Imidazopyrrolopyridine as inhibitors of the JAK family of kinases” (Janssen Pharmaceutica NV, priority 2016, dated 2021) come the findings set out here.

Common to all, as to format: biochemical
The target in one assay is JAK1-JH1JH2 (Homo sapiens (Human), UniProt P23458). Nature of the assay: Enzymatic inhibition assay (RapidFire HTMS), JAK1. Conditions: 12.5 μM ATP, 200 μM substrate; read-out: JAK1-JH2JH1 IC50. The source says:
(§1) LC/MS grade Water and Acetonitrile (ACN), were purchased from HoneyWell, Burdick & Jackson (Muskegon, Mich., USA). Dimethylsulfoxide 99.8% (DMSO) and Trifluoroacetic Acid 99.5% (TFA) were purchased from EMD Chemical (Gibbstown, N.J., USA). Adenosine triphosphate (ATP), 4-Morpholinepropanesulfonic acid (MOPS), Magnesium chloride (MgCl2), ethylenediaminetetraacetic acid (EDTA), dithiothreitol (DTT), formic acid >95% (FA) and Tween-20 were purchased from Sigma (St Louis, Mo., USA). 384-well polypropylene plates, Cat #781280 were purchased from Greiner (Monroe, N.C.), RapidFire™ cartridge A C4 Column (Agilent Technologies, Santa Clara, Calif.).
(§2) The HTMS experiments were performed in positive ionization mode on a RapidFire 300 instrument (Agilent Technologies, Santa Clara, Calif.), coupled with an ABSiex QTrap 4000 system with an Electrospray Ionization source (RF-MS) (Concord, ON, Canada). […] The entire system was operated using the RapidFire software interfaced with Analyst software for the mass spectrometer.
(§3) 11-point dosing series were made for each compound by serially diluting 1:3 or 1:4 in DMSO, with point 12 being a DMSO control. From the serial dilution plates, sample was transferred to a 384 wells assay plate (#781280, Greiner, Monroe, N.C.) using Labcyte Echo (Sunnyvale, Calif.), or Biosero ATS (San Diego, Calif.). The compounds were tested in duplicate. Column 12 was used for positive controls, and column 24 contained negative controls with no enzyme added. A compound from our internal collection, with inhibitory activity for JAK isoforms, was used as a reference compound. The final concentration of DMSO was ≤0.25% in a 20 μL reaction. […] The Tyk2 enzyme was pre-incubated with 2 mM ATP for 30 min prior to the reaction initiation. Immediately after the addition of the enzyme to the reaction mixture, the plate was centrifuged at 1000 rpm for 1 minute and incubated at 25° C. for 45 minutes for JAK 3 and 90 minutes for JAK1, JAK2 and Tyk2. The reaction was quenched by the addition of 20 μL of 0.5% TFA containing 0.15 μM of internal standard peptide using Multidrop Combi reagent dispenser (Thermo Scientific, Waltham, Mass.). […] After the quench, the assay plate was centrifuged at 3000 rpm for 3 minutes and sealed with pierceable aluminum foil (Cat #06644-001, Agilent) using a PlateLoc (Agilent Technologies, Santa Clara, Calif.). The plates then were transferred on to the RapidFire for the MS analysis. Compound inhibition was assessed by a decrease of the phosphorylated product levels in sample wells compared to the non-inhibited enzyme reaction.
(§4) The sample analysis on the RapidFire was performed using a mobile phase A consisting of Water/TFA/FA (100:0.01:0.1, v/v/v), a mobile phase B consisting of ACN/Water/TFA/FA (80:20:0.01:0.1, v/v/v). […] The samples were aspirated directly from the 384 assay plate and delivered onto RF-MS microscale solid-phase C4 extraction cartridge (Type A). The undesired component such as salt, cofactor, detergent and large protein were washed out and the retained analytes (substrate, product and IS) were coeluted directly onto the ABSiex Qtrap 4000 system.

For the next assay, the target named is JAK3-JH1JH2 (Homo sapiens (Human), UniProt P52333). The assay can be described thus: Enzymatic inhibition assay (RapidFire HTMS), JAK3. The note with it: 150 μM ATP, 40 μM substrate.
Sequence of JAK3-JH1JH2 (P52333 512-1124): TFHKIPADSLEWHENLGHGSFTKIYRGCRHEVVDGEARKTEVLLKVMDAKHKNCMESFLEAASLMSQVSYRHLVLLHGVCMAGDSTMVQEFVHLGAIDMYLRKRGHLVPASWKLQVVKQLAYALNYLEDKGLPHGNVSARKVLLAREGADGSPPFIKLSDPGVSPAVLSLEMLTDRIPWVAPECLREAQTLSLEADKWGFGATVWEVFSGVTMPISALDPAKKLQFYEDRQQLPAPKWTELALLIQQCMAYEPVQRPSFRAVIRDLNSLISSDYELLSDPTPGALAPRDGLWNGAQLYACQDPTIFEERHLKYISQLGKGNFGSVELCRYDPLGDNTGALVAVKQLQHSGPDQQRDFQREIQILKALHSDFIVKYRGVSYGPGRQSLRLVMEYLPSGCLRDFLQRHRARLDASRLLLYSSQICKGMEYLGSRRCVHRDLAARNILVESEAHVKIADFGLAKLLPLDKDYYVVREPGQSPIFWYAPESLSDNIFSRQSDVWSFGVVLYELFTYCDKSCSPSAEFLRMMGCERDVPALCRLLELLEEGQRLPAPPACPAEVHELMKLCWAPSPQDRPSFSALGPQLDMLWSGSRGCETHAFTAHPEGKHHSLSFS
Text: as §1, §2
as §3, with “compound.” for “compound. The final concentration of DMSO was ≤0.25% in a 20 μL reaction.”
as §4

The target of another assay is Tyk2-JH1JH2 (Homo sapiens (Human), UniProt P29597, C1142A/C936A). Nature of the assay: Enzymatic inhibition assay (RapidFire HTMS), Tyk2. The note with it: 50 μM ATP, 200 μM substrate.
Sequence of Tyk2-JH1JH2 (P29597 580-1182 C936A/C1142A): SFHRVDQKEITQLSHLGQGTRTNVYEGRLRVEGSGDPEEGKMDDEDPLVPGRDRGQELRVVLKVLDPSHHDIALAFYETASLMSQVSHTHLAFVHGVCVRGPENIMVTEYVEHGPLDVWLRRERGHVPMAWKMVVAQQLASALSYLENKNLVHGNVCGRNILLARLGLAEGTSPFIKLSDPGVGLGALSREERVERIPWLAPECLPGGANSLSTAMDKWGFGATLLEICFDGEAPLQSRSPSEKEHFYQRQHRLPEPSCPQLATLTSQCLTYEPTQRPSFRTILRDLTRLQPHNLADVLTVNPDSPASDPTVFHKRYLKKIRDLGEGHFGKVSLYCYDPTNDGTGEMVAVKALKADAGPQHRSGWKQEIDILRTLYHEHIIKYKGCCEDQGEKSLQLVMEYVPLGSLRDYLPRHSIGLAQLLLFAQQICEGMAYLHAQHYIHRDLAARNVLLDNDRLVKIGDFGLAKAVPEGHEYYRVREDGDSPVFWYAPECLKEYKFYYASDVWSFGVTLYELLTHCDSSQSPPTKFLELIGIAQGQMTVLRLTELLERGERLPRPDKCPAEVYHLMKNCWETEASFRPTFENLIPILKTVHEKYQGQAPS
Text: as §1, §2, §3, §4

Sequence of JAK1-JH1JH2 (P23458 574-1154): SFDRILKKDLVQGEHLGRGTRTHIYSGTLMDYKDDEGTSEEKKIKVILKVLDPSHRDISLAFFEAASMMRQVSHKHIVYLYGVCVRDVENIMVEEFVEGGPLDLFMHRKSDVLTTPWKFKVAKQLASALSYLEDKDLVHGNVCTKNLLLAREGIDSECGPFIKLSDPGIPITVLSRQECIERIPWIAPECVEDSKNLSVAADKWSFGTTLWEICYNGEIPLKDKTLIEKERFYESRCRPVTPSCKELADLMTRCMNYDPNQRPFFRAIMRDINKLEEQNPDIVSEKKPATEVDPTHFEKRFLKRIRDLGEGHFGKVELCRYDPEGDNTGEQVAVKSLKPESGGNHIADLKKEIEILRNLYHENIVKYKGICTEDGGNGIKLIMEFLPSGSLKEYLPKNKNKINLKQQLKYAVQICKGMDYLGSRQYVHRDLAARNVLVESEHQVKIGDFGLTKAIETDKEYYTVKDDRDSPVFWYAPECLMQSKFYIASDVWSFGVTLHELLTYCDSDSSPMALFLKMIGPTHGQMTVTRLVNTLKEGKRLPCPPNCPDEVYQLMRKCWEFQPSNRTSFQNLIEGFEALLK

As to `N#CC[C@H]1CC[C@H](n2c(CC(=O)NC34CC5CC(CC(O)(C5)C3)C4)nc3cnc4[nH]ccc4c32)CC1` [Ex. 52, 2-(1-((1r,4r)-4-(Cyanomethyl)cyclohexyl)-1,6-dihydroimidazo[4,5-d]pyrrolo[2,3-b]pyridin-2-yl)-N-((1s,3r,5R,7S)-3-hydroxyadamantan-1-yl)acetamide], the IC50 was 0.2 nM on JAK1-JH1JH2, 57.5 nM against JAK3-JH1JH2 and 4.4 nM on Tyk2-JH1JH2.
For the compound `COCCNC(=O)c1nc2cnc3[nH]ccc3c2n1[C@H]1CC[C@H](CC#N)CC1` [Ex. 145, 1-((1r,4r)-4-(Cyanomethyl)cyclohexyl)-N-(2-methoxyethyl)-1,6-dihydroimidazo[4,5-d]pyrrolo[2,3-b]pyridine-2-carboxamide], the values for the IC50 at JAK1-JH1JH2, against JAK3-JH1JH2 and against Tyk2-JH1JH2 were 1.1 nM, 175 nM and 19.4 nM, respectively.
On the same counts, the results for `N#CC[C@H]1CC[C@H](n2c(-c3cn[nH]n3)nc3cnc4[nH]ccc4c32)CC1` [Ex. 16, 2-((1r,4r)-4-(2-(2H-1,2,3-Triazol-4-yl)imidazo[4,5-d]pyrrolo[2,3-b]pyridin-1(6H)-yl)cyclohexyl)acetonitrile] are 0.1 nM, 37.7 nM and 3.7 nM.
With `N#CC[C@H]1CC[C@H](n2c(CN/C(Cc3ccccc3)=N\O)nc3cnc4[nH]ccc4c32)CC1` [Ex. 103, (EZ)—N-((1-((1r,4r)-4-(Cyanomethyl)cyclohexyl)-1,6-dihydroimidazo[4,5-d]pyrrolo[2,3-b]pyridin-2-yl)methyl)-N-hydroxy-2-phenylacetimidamide], the IC50 at JAK1-JH1JH2 was 0.5 nM; against JAK3-JH1JH2, 459 nM; on Tyk2-JH1JH2, 11.3 nM.
Regarding `N#CC[C@H]1CC[C@H](n2c(CO/N=C(\N)CN3CCCCC3)nc3cnc4[nH]ccc4c32)CC1` [Ex. 153, (Z*)—N′-((1-((1r,4r)-4-(Cyanomethyl)cyclohexyl)-1,6-dihydroimidazo[4,5-d]pyrrolo[2,3-b]pyridin-2-yl)methoxy)-2-(piperidin-1-yl)acetimidamide], the half-inhibitory concentration (IC50) at JAK1-JH1JH2 amounted to 3.7 nM; against JAK3-JH1JH2 it was 512 nM.
`N#CC[C@H]1CC[C@H](n2c(CC(=O)N3CCC(C(F)(F)F)CC3)nc3cnc4[nH]ccc4c32)CC1` [Ex. 6, 2-((1r,4r)-4-(2-(2-Oxo-2-(4-(trifluoromethyl)piperidin-1-yl)ethyl)imidazo[4,5-d]pyrrolo[2,3-b]pyridin-1(6H)-yl)cyclohexyl)acetonitrile]: the values for the IC50 against JAK3-JH1JH2 and at Tyk2-JH1JH2 were 49.4 nM and 0.4 nM, respectively.
`N#CC[C@H]1CC[C@H](n2c(CNC(=O)Nc3ccccc3)nc3cnc4[nH]ccc4c32)CC1` [Ex. 70, 1-((1-((1r,4r)-4-(Cyanomethyl)cyclohexyl)-1,6-dihydroimidazo[4,5-d]pyrrolo[2,3-b]pyridin-2-yl)methyl)-3-phenylurea]: the IC50 at JAK1-JH1JH2 is 0.4 nM; on JAK3-JH1JH2, 108 nM; against Tyk2-JH1JH2, 9.4 nM.
As for `N#CC[C@H]1CC[C@H](n2c(CC(=O)NCC3CCCCC3)nc3cnc4[nH]ccc4c32)CC1` [Ex. 69, 2-(1-((1r,4r)-4-(Cyanomethyl)cyclohexyl)-1,6-dihydroimidazo[4,5-d]pyrrolo[2,3-b]pyridin-2-yl)-N-(cyclohexylmethyl)acetamide], the IC50 on JAK1-JH1JH2 turned out to be 0.3 nM; against JAK3-JH1JH2, 111 nM; against Tyk2-JH1JH2, 15.6 nM.
Consider `N#CC[C@H]1CC[C@H](n2c(CC(=O)Nc3ccc(C(O)(C(F)(F)F)C(F)(F)F)cc3)nc3cnc4[nH]ccc4c32)CC1` [Ex. 104, 2-(1-((1r,4r)-4-(Cyanomethyl)cyclohexyl)-1,6-dihydroimidazo[4,5-d]pyrrolo[2,3-b]pyridin-2-yl)-N-(4-(1,1,1,3,3,3-hexafluoro-2-hydroxypropan-2-yl)phenyl)acetamide], for which the IC50 amounted to 0.5 nM at JAK1-JH1JH2, 298 nM at JAK3-JH1JH2 and 12.6 nM against Tyk2-JH1JH2.
Turning to `N#CC[C@H]1CC[C@H](n2c(CC(=O)NCc3ccccc3)nc3cnc4[nH]ccc4c32)CC1` [Ex. 48, N-Benzyl-2-(1-((1r,4r)-4-(cyanomethyl)cyclohexyl)-1,6-dihydroimidazo[4,5-d]pyrrolo[2,3-b]pyridin-2-yl)acetamide], the IC50 at JAK1-JH1JH2 came out at 0.2 nM; on JAK3-JH1JH2 it was 193 nM; against Tyk2-JH1JH2, 11.2 nM.
As for `N#CC[C@H]1CC[C@H](n2c(C(=O)NCC3(O)CCCCCC3)nc3cnc4[nH]ccc4c32)CC1` [Ex. 136, 1-((1r,4r)-4-(Cyanomethyl)cyclohexyl)-N-((1-hydroxycycloheptyl)methyl)-1,6-dihydroimidazo[4,5-d]pyrrolo[2,3-b]pyridine-2-carboxamide], the IC50 at JAK1-JH1JH2 stood at 0.9 nM; against JAK3-JH1JH2 it was 65.9 nM; on Tyk2-JH1JH2, 19.1 nM.
In the case of `C[Si](C)(C)C1CCC(c2nc3cnc4[nH]ccc4c3n2[C@H]2CC[C@H](CC#N)CC2)CC1` (stereo partly drawn) [Ex. 100, 2-((1r,4r)-4-(2-(4-(Trimethylsilyl)cyclohexyl)imidazo[4,5-d]pyrrolo[2,3-b]pyridin-1(6H)-yl)cyclohexyl)acetonitrile], the IC50 on JAK1-JH1JH2 is 72 nM; on JAK3-JH1JH2, greater than 6250 nM; on Tyk2-JH1JH2 it was 2280 nM.
As for `CC(C)(O)CNC(=O)c1nc2cnc3[nH]ccc3c2n1[C@H]1CC[C@H](CC#N)CC1` [Ex. 117, 1-((1r,4r)-4-(Cyanomethyl)cyclohexyl)-N-(2-hydroxy-2-methylpropyl)-1,6-dihydroimidazo[4,5-d]pyrrolo[2,3-b]pyridine-2-carboxamide], the values for the IC50 at JAK1-JH1JH2, against JAK3-JH1JH2 and against Tyk2-JH1JH2 were 0.6 nM, 273 nM and 17.3 nM, respectively.
On the same counts, the results for `N#CC[C@H]1CC[C@H](n2c(CC(=O)NCC34CC5CC(CC(O)(C5)C3)C4)nc3cnc4[nH]ccc4c32)CC1` [Ex. 21, 2-(1-((1r,4r)-4-(Cyanomethyl)cyclohexyl)-1,6-dihydroimidazo[4,5-d]pyrrolo[2,3-b]pyridin-2-yl)-N-(((1S,3R,5R,7S)-3-hydroxyadamantan-1-yl)methyl)acetamide] are 0.1 nM, 55.1 nM and 3.5 nM.
On to `N#CC[C@H]1CC[C@H](n2c(-c3cn[nH]c3)nc3cnc4[nH]ccc4c32)CC1` [Ex. 123, 2-((1r,4r)-4-(2-(1H-pyrazol-4-yl)imidazo[4,5-d]pyrrolo[2,3-b]pyridin-1(6H)-yl)cyclohexyl)acetonitrile], for which the 50% inhibitory concentration (IC50) on JAK1-JH1JH2 was 0.7 nM; at JAK3-JH1JH2 it was 146 nM; at Tyk2-JH1JH2, 11.6 nM.
For the compound `CC(C)(CO)CNC(=O)Cc1nc2cnc3[nH]ccc3c2n1[C@H]1CC[C@H](CC#N)CC1` [Ex. 15, 2-(1-((1r,4r)-4-(Cyanomethyl)cyclohexyl)-1,6-dihydroimidazo[4,5-d]pyrrolo[2,3-b]pyridin-2-yl)-N-(3-hydroxy-2,2-dimethylpropyl)acetamide], the results for the half-inhibitory concentration (IC50) on JAK1-JH1JH2 and at JAK3-JH1JH2 were 0.1 nM and 54.5 nM, respectively.
